The NIST ThermoML archive (doi:10.1016/j.fluid.2014.09.014)
± gives the expanded uncertainty stated by the source.

Experiment: refractive index (other wavelength) (dimensionless); xn = mol fraction of the nth substance listed
Conditions: 298.15 K, 101 kPa, Liquid, Standard Abbe refractometry

CC(C)OC(C)C [diisopropyl ether] + CC(C)O
refractive index (Wavelength=435.8 nm, x1 = 0.0717): 1.38247 ± 0.00032
refractive index (Wavelength=435.8 nm, x1 = 0.1528): 1.38186 ± 0.00032
refractive index (Wavelength=435.8 nm, x1 = 0.1553): 1.38186 ± 0.00032
refractive index (Wavelength=435.8 nm, x1 = 0.1938): 1.38158 ± 0.00033
refractive index (Wavelength=435.8 nm, x1 = 0.2029): 1.38132 ± 0.00033
refractive index (Wavelength=435.8 nm, x1 = 0.245): 1.38088 ± 0.00033
refractive index (Wavelength=435.8 nm, x1 = 0.297): 1.38044 ± 0.00034
refractive index (Wavelength=435.8 nm, x1 = 0.2973): 1.38067 ± 0.00034
refractive index (Wavelength=435.8 nm, x1 = 0.3068): 1.38023 ± 0.00034
refractive index (Wavelength=435.8 nm, x1 = 0.398): 1.37907 ± 0.00035
refractive index (Wavelength=435.8 nm, x1 = 0.4609): 1.37845 ± 0.00035
refractive index (Wavelength=435.8 nm, x1 = 0.5434): 1.37764 ± 0.00036
refractive index (Wavelength=435.8 nm, x1 = 0.6032): 1.37707 ± 0.00037
refractive index (Wavelength=435.8 nm, x1 = 0.6371): 1.37669 ± 0.00038
refractive index (Wavelength=435.8 nm, x1 = 0.701): 1.37604 ± 0.00039
refractive index (Wavelength=435.8 nm, x1 = 0.754): 1.37567 ± 0.00039
refractive index (Wavelength=435.8 nm, x1 = 0.791): 1.37529 ± 0.0004
refractive index (Wavelength=435.8 nm, x1 = 0.8296): 1.37498 ± 0.00041
refractive index (Wavelength=435.8 nm, x1 = 0.8864): 1.37471 ± 0.00042
refractive index (Wavelength=435.8 nm, x1 = 0.8903): 1.37434 ± 0.00042
refractive index (Wavelength=435.8 nm, x1 = 0.9113): 1.37411 ± 0.00042
refractive index (Wavelength=435.8 nm, x1 = 0.9547): 1.37367 ± 0.00043
refractive index (Wavelength=435.8 nm, x1 = 0.973): 1.37334 ± 0.00043
refractive index (Wavelength=435.8 nm, x1 = 0.9771): 1.3733 ± 0.00043
refractive index (Wavelength=435.8 nm, x1 = 1): 1.37308 ± 0.00044
refractive index (Wavelength=486.1 nm, x1 = 0.0277): 1.37932 ± 0.00032
refractive index (Wavelength=486.1 nm, x1 = 0.0507): 1.37925 ± 0.00032
refractive index (Wavelength=486.1 nm, x1 = 0.051): 1.37929 ± 0.00032
refractive index (Wavelength=486.1 nm, x1 = 0.0717): 1.37903 ± 0.00032
refractive index (Wavelength=486.1 nm, x1 = 0.1528): 1.37841 ± 0.00032
refractive index (Wavelength=486.1 nm, x1 = 0.1553): 1.37841 ± 0.00032
refractive index (Wavelength=486.1 nm, x1 = 0.1938): 1.37814 ± 0.00033
refractive index (Wavelength=486.1 nm, x1 = 0.2029): 1.37787 ± 0.00033
refractive index (Wavelength=486.1 nm, x1 = 0.245): 1.37746 ± 0.00033
refractive index (Wavelength=486.1 nm, x1 = 0.297): 1.377 ± 0.00034
refractive index (Wavelength=486.1 nm, x1 = 0.2973): 1.37725 ± 0.00034
refractive index (Wavelength=486.1 nm, x1 = 0.3068): 1.37678 ± 0.00034
refractive index (Wavelength=486.1 nm, x1 = 0.398): 1.37562 ± 0.00035
refractive index (Wavelength=486.1 nm, x1 = 0.4609): 1.37502 ± 0.00035
refractive index (Wavelength=486.1 nm, x1 = 0.5434): 1.3742 ± 0.00036
refractive index (Wavelength=486.1 nm, x1 = 0.6032): 1.37364 ± 0.00037
refractive index (Wavelength=486.1 nm, x1 = 0.6371): 1.37328 ± 0.00038
refractive index (Wavelength=486.1 nm, x1 = 0.701): 1.37261 ± 0.00039
refractive index (Wavelength=486.1 nm, x1 = 0.754): 1.37225 ± 0.00039
refractive index (Wavelength=486.1 nm, x1 = 0.791): 1.37188 ± 0.0004
refractive index (Wavelength=486.1 nm, x1 = 0.8296): 1.37154 ± 0.00041
refractive index (Wavelength=486.1 nm, x1 = 0.8864): 1.37132 ± 0.00042
refractive index (Wavelength=486.1 nm, x1 = 0.8903): 1.3709 ± 0.00042
refractive index (Wavelength=486.1 nm, x1 = 0.9113): 1.37068 ± 0.00042
refractive index (Wavelength=486.1 nm, x1 = 0.9547): 1.37025 ± 0.00043
refractive index (Wavelength=486.1 nm, x1 = 0.973): 1.36994 ± 0.00043
refractive index (Wavelength=486.1 nm, x1 = 0.9771): 1.36986 ± 0.00043
refractive index (Wavelength=486.1 nm, x1 = 1): 1.36965 ± 0.00044
refractive index (Wavelength=546.1 nm, x1 = 0.0277): 1.37648 ± 0.00032
refractive index (Wavelength=546.1 nm, x1 = 0.0507): 1.37639 ± 0.00032
refractive index (Wavelength=546.1 nm, x1 = 0.051): 1.37644 ± 0.00032
refractive index (Wavelength=546.1 nm, x1 = 0.0717): 1.37618 ± 0.00032
refractive index (Wavelength=546.1 nm, x1 = 0.1528): 1.37557 ± 0.00032
refractive index (Wavelength=546.1 nm, x1 = 0.1553): 1.37557 ± 0.00032
refractive index (Wavelength=546.1 nm, x1 = 0.1938): 1.3753 ± 0.00033
refractive index (Wavelength=546.1 nm, x1 = 0.2029): 1.37502 ± 0.00033
refractive index (Wavelength=546.1 nm, x1 = 0.245): 1.37462 ± 0.00033
refractive index (Wavelength=546.1 nm, x1 = 0.297): 1.37426 ± 0.00034
refractive index (Wavelength=546.1 nm, x1 = 0.2973): 1.37439 ± 0.00034
refractive index (Wavelength=546.1 nm, x1 = 0.3068): 1.37394 ± 0.00034
refractive index (Wavelength=546.1 nm, x1 = 0.398): 1.37278 ± 0.00035
refractive index (Wavelength=546.1 nm, x1 = 0.4609): 1.37217 ± 0.00035
refractive index (Wavelength=546.1 nm, x1 = 0.5434): 1.37135 ± 0.00036
refractive index (Wavelength=546.1 nm, x1 = 0.6032): 1.3708 ± 0.00037
refractive index (Wavelength=546.1 nm, x1 = 0.6371): 1.37042 ± 0.00038
refractive index (Wavelength=546.1 nm, x1 = 0.701): 1.36978 ± 0.00039
refractive index (Wavelength=546.1 nm, x1 = 0.754): 1.3694 ± 0.00039
refractive index (Wavelength=546.1 nm, x1 = 0.791): 1.36903 ± 0.0004
refractive index (Wavelength=546.1 nm, x1 = 0.8296): 1.36872 ± 0.00041
refractive index (Wavelength=546.1 nm, x1 = 0.8864): 1.36847 ± 0.00042
refractive index (Wavelength=546.1 nm, x1 = 0.8903): 1.36807 ± 0.00042
refractive index (Wavelength=546.1 nm, x1 = 0.9113): 1.36785 ± 0.00042
refractive index (Wavelength=546.1 nm, x1 = 0.9547): 1.36742 ± 0.00043
refractive index (Wavelength=546.1 nm, x1 = 0.973): 1.3671 ± 0.00043
refractive index (Wavelength=546.1 nm, x1 = 0.9771): 1.36704 ± 0.00043
refractive index (Wavelength=546.1 nm, x1 = 1): 1.36683 ± 0.00044
refractive index (Wavelength=587.6 nm, x1 = 0.0277): 1.37498 ± 0.00032
refractive index (Wavelength=587.6 nm, x1 = 0.0507): 1.37488 ± 0.00032
refractive index (Wavelength=587.6 nm, x1 = 0.051): 1.37491 ± 0.00032
refractive index (Wavelength=587.6 nm, x1 = 0.0717): 1.37468 ± 0.00032
refractive index (Wavelength=587.6 nm, x1 = 0.1528): 1.37406 ± 0.00032
refractive index (Wavelength=587.6 nm, x1 = 0.1553): 1.37406 ± 0.00032
refractive index (Wavelength=587.6 nm, x1 = 0.1938): 1.37379 ± 0.00033
refractive index (Wavelength=587.6 nm, x1 = 0.2029): 1.37351 ± 0.00033
refractive index (Wavelength=587.6 nm, x1 = 0.245): 1.37311 ± 0.00033
refractive index (Wavelength=587.6 nm, x1 = 0.297): 1.37265 ± 0.00034
refractive index (Wavelength=587.6 nm, x1 = 0.2973): 1.37289 ± 0.00034
refractive index (Wavelength=587.6 nm, x1 = 0.3068): 1.37243 ± 0.00034
refractive index (Wavelength=587.6 nm, x1 = 0.398): 1.37127 ± 0.00035
refractive index (Wavelength=587.6 nm, x1 = 0.4609): 1.37067 ± 0.00035
